# Reference: publication PMC9145865, “Effects of Rare Phytocannabinoids on the Endocannabinoid System of Human Keratinocytes” (International Journal of Molecular Sciences, 2022)
# Entries after “also recorded” stand apart in the source; their conditions may differ.
# Legend:
# GPR55 = experiment: qRT-PCR gene expression of GPR55; assay type: cell-based, human; details: HaCaT cells, half-IC50 dose, 24 h, vs. control
# Method: The HaCaT cells were seeded into 6-well plates at a density of 4 × 10^4 per well, incubated overnight and then treated with the selected pCBs (CBG (6.0 µM), CBC (4.0 µM), THCV (9.0 µM) and CBGA (13.0 µM)) for 24 h. The cell pellets were collected and RT-PCR reactions were performed using the RevertAid H Minus First Strand cDNA Synthesis Kit. The relative abundance was assessed via RT quantitative PCR (RT-qPCR) using the SensiFAST SYBR Lo-ROX Kit in an Applied Biosystems 7500 Fast Real-Time PCR System (Life Technologies). To provide the precise quantification of the initial target in each PCR reaction, the amplification plot was examined, as well as the point of early log phase of the product accumulation, which was defined by assigning a fluorescence threshold above the background that was defined as the threshold cycle number or “Ct. Differences” in threshold cycle number that was used to quantify the relative amount of the PCR targets that were contained within each tube. After PCR, a dissociation curve (melting curve) was constructed in the range of 60 °C to 95 °C [62] to evaluate the specificity of the amplification products. The relative expression of the different amplicons was calculated using the delta–delta Ct (ΔΔCt) method and then converted into the relative expression ratio (2^−ΔΔCt) for statistical analysis. All data were normalized to the endogenous reference genes β-actin and glyceraldehyde-3-phosphate dehydrogenase. The specific primers (Table 5) that were used were designed and ordered from Integrated DNA Technologies (IDT; Coralville, IA, USA) with the following sequences: […]
# TRPV1 [1] = experiment: Western blot protein expression of TRPV1; assay type: cell-based, human; details: HaCaT cells, half-IC50 dose, 24 h, vs. control
# Method: The HaCaT cells were seeded into 6-well plates at a density of 4 × 10^4 per well, incubated overnight and then treated with the selected pCBs (6.0 µM of CBG, 4.0 µM of CBC, 9.0 µM of THCV and 13.0 µM of CBGA) for 24 h. The cell pellets were collected and then lysed in an ice-cold lysis buffer (10 mM of EDTA, 50 mM of pH 7.4 Tris–HCl, 150 mM of sodium chloride, 1% Triton-X-100, 2 mM of phenylmethylsulfonyl fluoride, 2 mM of sodium orthovanadate, […] of leupeptin and […] of aprotinin). The amount of protein was determined using the Bio-Rad Protein assay (Bio-Rad Laboratories, Hemel Hempstead, UK). An equal amount of protein (60 µg) was loaded onto 10% sodium dodecyl sulfate–polyacrylamide gels and blotted onto polyvinylidene fluoride sheets (Amersham Biosciences, Piscataway, NJ, USA). The membranes were blocked with dried 5% non-fat milk for 1 h and then incubated with suitable primary antibodies. Detection was performed using Azure Biosystems c400 (Dublin, CA, USA). The membranes were stripped using the Restore Western Blot Stripping Buffer from Thermo Fisher Scientific (Waltham, MA, USA) for 30 min under agitation at room temperature, according to the manufacturer’s instructions. The primary antibodies (Table 6) that were used were obtained from the following sources: […]
# CB1/2 = experiment: Receptor binding assay on adherent living cells with [3H]CP 55,940; parameters: species or system human; details: HaCaT cells treated 24 h with half-IC50 amount; for total CB1/2 binding activity (in words): vs. control; for CB1/2 Binding Activity (pmol/mg of Protein): 2.5 nM [3H]CP 55,940, mean ± SEM, n = 3
# Method: We also sought to investigate the effects of half-IC50 doses of pCBs on the functional activity of eCB-binding receptors (CB1/2 and TRPV1) and the AEA and 2-AG metabolizing enzymes (NAPE-PLD, FAAH, DAGLα/β and MAGL) when used to treat HaCaT cells for 24 h, for which an assay procedure was available. To this end, a CB1/2 ligand binding assay was performed using the radiolabeled synthetic cannabinoid [^3H]CP 55,940, which acts as a full agonist of both cannabinoid receptors with high and roughly equal affinity.
# The HaCaT cells were seeded into 12-well plates at a density of 2 × 10^4 per well, incubated overnight and then treated with the selected pCBs (6.0 µM of CBG, 4.0 µM of CBC, 9.0 µM of THCV and 13.0 µM CBGA) for 24 h. Each well of the 12-well plates was washed twice with 1 mL of PBS and treated with 500 µL of incubation buffer (50 mM of Tris–HCl, 5 mM of MgCl2 and 1 mM of CaCl2; 0.2% BSA; pH 7.4), preheated to 37 °C and then incubated for 15 min at 37 °C. Then, 2.5 nM of [^3H]CP 55,940 was added and incubation occurred for 1 h in an incubator that was set at 37 °C. Afterward, the buffer was carefully removed and the cells were washed again with an ice-cold washing buffer (50 mM of Tris–HCl and 500 mM of NaCl; 0.1% BSA; pH 7.4). Unspecific binding was determined in the presence of 1 µM of synthetic agonist CP 55,940 [60]. Then, 500 µL of 0.5 M NaOH was added to each well and the cells were pipetted up and down several times in order to be lysed. The resuspension was then transferred to a 10-mL scintillation vial with a liquid scintillation cocktail and radioactivity was immediately read using a scintillation β-counter (Tri-Carb 2810 TR, Perkin Elmer, Waltham, MA, USA), as described in [40].
# TRPV1 [2] = experiment: TRPV1 calcium assay (capsaicin-triggered intracellular Ca2+ release); assay type: cell-based, human; details: HaCaT cells, half-IC50 amount, 24 h; capsaicin 1 µM; vs. control
# Method: The effects of the pCBs on intracellular Ca^2+ release that was induced by TRPV1 activation was determined using the selective intracellular fluorescent probe Fluo-3 AM (Molecular probes, Eugene, OR, USA). The HaCaT cells (1 × 10^6 cells) were loaded for 15 min at 25 °C with 4 µM of Fluo-3 AM, which contained 0.02% Pluronic F-127 (Molecular probes) in an OPTIMEM medium, and then they were washed in the Tyrode’s buffer (145 mM of NaCl, 2.5 mM of KCl, 1.5 mM of CaCl2, 1.2 mM of MgCl2, 10 mM of D-glucose and 10 mM of HEPES; pH 7.4), resuspended in 2 mL of the Tyrode’s buffer and transferred into the quartz cuvette of the LS50B spectrofluorometer (Perkin Elmer, Waltham, MA, USA). Fluorescence was measured at 25 °C (excitation at λ = 488 nm; emission at λ = 516 nm) from the HaCaT cells, which had been pre-incubated with each pCB (6.0 µM of CBG, 4.0 of µM CBC, 9.0 µM of THCV and 13.0 µM of CBGA) and then stimulated with the selective TRPV1 agonist capsaicin (1 µM), as reported in [64]. The TRPV1-mediated intracellular Ca^2+ elevation was expressed as fluorescence intensity (arbitrary units, AU) per 10^6 cells.
SMILES,Gene Expression GPR55 (GPR55),gene expression of GPR55 (in words) (GPR55),Protein Expression TRPV1 (TRPV1 [1]),total CB1/2 binding activity (in words) (CB1/2),CB1/2 Binding Activity (pmol/mg of Protein) (CB1/2),TRPV1 channel stimulation (intracellular Ca2+ release triggered by capsaicin) (TRPV1 [2])
"CCCCCc1cc(O)c2c(c1)OC(C)(CCC=C(C)C)C=C2 (stereo not shown) [CBC, cannabichromene]",↓++++,reduced,↑++++,significantly increased,10.380 ± 0.750 pmol/mg of Protein,significantly increased
"CCCCCc1cc(O)c(C/C=C(\C)CCC=C(C)C)c(O)c1 [CBG, cannabigerol]",,,↑++++,significantly increased; also recorded: doubled,8.027 ± 0.681 pmol/mg of Protein,significantly increased
"CCCCCc1cc(O)c(C/C=C(\C)CCC=C(C)C)c(O)c1C(=O)O [CBGA, cannabigerolic acid]",GPR55 ↑+++,significant increase,↑++++,significantly increased,8.373 ± 0.410 pmol/mg of Protein,significantly increased
"CCCc1cc(O)c2c(c1)OC(C)(C)[C@@H]1CCC(C)=C[C@@H]21 [THCV, Δ^9-tetrahydrocannabivarin]",↑++++,significant increase,↑++++,significantly increased,8.187 ± 0.302 pmol/mg of Protein,significantly increased
